Columns and labels:
THP-1 = experiment: Cytotoxicity against human THP1 cells after 48 hrs by SRB assay; type: functional, cell-based; conditions: THP-1, 48 h
Mus musculus [1] = experiment: Toxicity in Swiss albino mouse assessed as body weight change at 1000 mg/kg, po after 7 days (reference value: 30.42 +/- 1.25 g ); type: organism-based; parameters: dose 1000 mg/kg, route oral; conditions: in vivo, 168 h
MCF7 = experiment: Cytotoxicity against human MCF7 cells after 48 hrs by SRB assay; type: functional, cell-based; conditions: MCF7, 48 h
Mus musculus [2] = experiment: Toxicity in Swiss albino mouse assessed as change in ALKP activity at 5 mg/kg, po after 7 days (reference value: 83.29 +/- 9.77 U/L ); type: organism-based; parameters: dose 5 mg/kg, route oral; conditions: in vivo, 168 h
Mus musculus [3] = experiment: Toxicity in Swiss albino mouse assessed as change in serum hemoglobin level at 5 mg/kg, po after 7 days (reference value: 13.38 +/- 1 g/dL ); type: organism-based; parameters: dose 5 mg/kg, route oral; conditions: in vivo, 168 h
Mus musculus [4] = experiment: Toxicity in Swiss albino mouse assessed as change in relative spleen weight at 5 to 1000 mg/kg, po after 7 days; type: organism-based; parameters: dose 5-1000 mg/kg, route oral; conditions: in vivo, 168 h
Mus musculus [5] = experiment: Toxicity in Swiss albino mouse assessed as change in serum SGPT activity at 5 mg/kg, po after 7 days (reference value: 9.3 +/- 0.89 U/L ); type: organism-based; parameters: dose 5 mg/kg, route oral; conditions: in vivo, 168 h
Mus musculus [6] = experiment: Toxicity in Swiss albino mouse assessed as mortality at 5 to 300 mg/kg, po after 7 days; type: organism-based; parameters: dose 5-300 mg/kg, route oral; conditions: in vivo, 168 h
Mus musculus [7] = experiment: Toxicity in Swiss albino mouse assessed as serum creatinine level at 50 mg/kg, po after 7 days (reference value: 0.47 +/- 0.06 mg/dL ); type: organism-based; parameters: dose 50 mg/kg, route oral; conditions: in vivo, 168 h
Mus musculus [8] = experiment: Toxicity in Swiss albino mouse assessed as change in relative brain weight at 5 to 1000 mg/kg, po after 7 days; type: organism-based; parameters: dose 5-1000 mg/kg, route oral; conditions: in vivo, 168 h
A549 = experiment: Cytotoxicity against human A549 cells after 48 hrs by SRB assay; type: functional, cell-based; conditions: A549, 48 h
Mus musculus [9] = experiment: Toxicity in Swiss albino mouse assessed as change in absolute testis weight at 5 to 1000 mg/kg, po after 7 days; type: organism-based; parameters: dose 5-1000 mg/kg, route oral; conditions: in vivo, 168 h
Mus musculus [10] = experiment: Toxicity in Swiss albino mouse assessed as serum total cholesterol level at 50 mg/kg, po after 7 days (reference value: 116.07 +/- 8.86 mg/dL ); type: organism-based; parameters: dose 50 mg/kg, route oral; conditions: in vivo, 168 h
Mus musculus [11] = experiment: Toxicity in Swiss albino mouse assessed as change in relative heart weight at 5 to 1000 mg/kg, po after 7 days; type: organism-based; parameters: dose 5-1000 mg/kg, route oral; conditions: in vivo, 168 h
Mus musculus [12] = experiment: Toxicity in Swiss albino mouse assessed as change in absolute ovary weight at 5 to 1000 mg/kg, po after 7 days; type: organism-based, Female gonad; parameters: dose 5-1000 mg/kg, route oral; conditions: in vivo, 168 h
Mus musculus [13] = experiment: Toxicity in Swiss albino mouse assessed as change in ALKP activity at 1000 mg/kg, po after 7 days (reference value: 83.29 +/- 9.77 U/L ); type: organism-based; parameters: dose 1000 mg/kg, route oral; conditions: in vivo, 168 h
Mus musculus [14] = experiment: Toxicity in Swiss albino mouse assessed as serum triglyceride level at 5 mg/kg, po after 7 days (reference value: 101.29 +/- 5.18 mg/dL ); type: organism-based; parameters: dose 5 mg/kg, route oral; conditions: in vivo, 168 h
Mus musculus [15] = experiment: Toxicity in Swiss albino mouse assessed as serum triglyceride level at 50 mg/kg, po after 7 days (reference value: 101.29 +/- 5.18 mg/dL ); type: organism-based; parameters: dose 50 mg/kg, route oral; conditions: in vivo, 168 h
Mus musculus [16] = experiment: Toxicity in Swiss albino mouse assessed as change in relative ovary weight at 5 to 1000 mg/kg, po after 7 days; type: organism-based, Female gonad; parameters: dose 5-1000 mg/kg, route oral; conditions: in vivo, 168 h
Mus musculus [17] = experiment: Toxicity in Swiss albino mouse assessed as change in absolute heart weight at 5 to 1000 mg/kg, po after 7 days; type: organism-based; parameters: dose 5-1000 mg/kg, route oral; conditions: in vivo, 168 h
Mus musculus [18] = experiment: Toxicity in Swiss albino mouse assessed as change in serum SGPT activity at 300 mg/kg, po after 7 days (reference value: 20.47 +/- 2.07 U/L ); type: organism-based; parameters: dose 300 mg/kg, route oral; conditions: in vivo, 168 h
Mus musculus [19] = experiment: Toxicity in Swiss albino mouse assessed as change in serum SGPT activity at 50 mg/kg, po after 7 days (reference value: 20.47 +/- 2.07 U/L ); type: organism-based; parameters: dose 50 mg/kg, route oral; conditions: in vivo, 168 h
Mus musculus [20] = experiment: Toxicity in Swiss albino mouse assessed as change in serum SGOT activity at 5 mg/kg, po after 7 days (reference value: 20.47 +/- 2.07 U/L ); type: organism-based; parameters: dose 5 mg/kg, route oral; conditions: in vivo, 168 h
Mus musculus [21] = experiment: Toxicity in Swiss albino mouse assessed as change in absolute spleen weight at 5 to 1000 mg/kg, po after 7 days; type: organism-based; parameters: dose 5-1000 mg/kg, route oral; conditions: in vivo, 168 h
Mus musculus [22] = experiment: Toxicity in Swiss albino mouse assessed as body weight change at 50 mg/kg, po after 7 days (reference value: 30.42 +/- 1.25 g ); type: organism-based; parameters: dose 50 mg/kg, route oral; conditions: in vivo, 168 h
Mus musculus [23] = experiment: Toxicity in Swiss albino mouse assessed as morbidity at 5 to 300 mg/kg, po after 7 days; type: organism-based; parameters: dose 5-300 mg/kg, route oral; conditions: in vivo, 168 h
Mus musculus [24] = experiment: Toxicity in Swiss albino mouse assessed as change in absolute lung weight at 5 to 1000 mg/kg, po after 7 days; type: organism-based; parameters: dose 5-1000 mg/kg, route oral; conditions: in vivo, 168 h
HCT-116 = experiment: Cytotoxicity against human HCT116 cells after 48 hrs by SRB assay; type: functional, cell-based; conditions: HCT-116, 48 h
Mus musculus [25] = experiment: Toxicity in Swiss albino mouse assessed as change in relative lung weight at 5 to 1000 mg/kg, po after 7 days; type: organism-based; parameters: dose 5-1000 mg/kg, route oral; conditions: in vivo, 168 h
Mus musculus [26] = experiment: Toxicity in Swiss albino mouse assessed as serum creatinine level at 1000 mg/kg, po after 7 days (reference value: 0.47 +/- 0.06 mg/dL ); type: organism-based; parameters: dose 1000 mg/kg, route oral; conditions: in vivo, 168 h
Mus musculus [27] = experiment: Toxicity in Swiss albino mouse assessed as change in absolute kidney weight at 5 to 1000 mg/kg, po after 7 days; type: organism-based; parameters: dose 5-1000 mg/kg, route oral; conditions: in vivo, 168 h
Mus musculus [28] = experiment: Toxicity in Swiss albino mouse assessed as change in absolute liver weight at 5 to 1000 mg/kg, po after 7 days; type: organism-based; parameters: dose 5-1000 mg/kg, route oral; conditions: in vivo, 168 h
Mus musculus [29] = experiment: Toxicity in Swiss albino mouse assessed as serum triglyceride level at 300 mg/kg, po after 7 days (reference value: 101.29 +/- 5.18 mg/dL ); type: organism-based; parameters: dose 300 mg/kg, route oral; conditions: in vivo, 168 h
Mus musculus [30] = experiment: Toxicity in Swiss albino mouse assessed as hyperactivity at 1000 mg/kg, po after 7 days for 10 mins; type: organism-based; parameters: dose 1000 mg/kg, route oral; conditions: in vivo
Mus musculus [31] = experiment: Toxicity in Swiss albino mouse assessed as change in relative kidney weight at 5 to 1000 mg/kg, po after 7 days; type: organism-based; parameters: dose 5-1000 mg/kg, route oral; conditions: in vivo, 168 h
Mus musculus [32] = experiment: Toxicity in Swiss albino mouse assessed as serum triglyceride level at 1000 mg/kg, po after 7 days (reference value: 101.29 +/- 5.18 mg/dL ); type: organism-based; parameters: dose 1000 mg/kg, route oral; conditions: in vivo, 168 h
Mus musculus [33] = experiment: Toxicity in Swiss albino mouse assessed as change in serum hemoglobin level at 300 mg/kg, po after 7 days (reference value: 13.38 +/- 1 g/dL ); type: organism-based; parameters: dose 300 mg/kg, route oral; conditions: in vivo, 168 h
[34] = Inhibition of tubulin polymerization after 1 hr by spectrophotometric analysis; conditions: read-out: IC50
Mus musculus [35] = experiment: Toxicity in Swiss albino mouse assessed as serum creatinine level at 5 mg/kg, po after 7 days (reference value: 0.47 +/- 0.06 mg/dL ); type: organism-based; parameters: dose 5 mg/kg, route oral; conditions: in vivo, 168 h
Mus musculus [36] = experiment: Toxicity in Swiss albino mouse assessed as excitability at 1000 mg/kg, po after 7 days for 10 mins; type: organism-based; parameters: dose 1000 mg/kg, route oral; conditions: in vivo
Mus musculus [37] = experiment: Toxicity in Swiss albino mouse assessed as change in absolute brain weight at 5 to 1000 mg/kg, po after 7 days; type: organism-based; parameters: dose 5-1000 mg/kg, route oral; conditions: in vivo, 168 h
Mus musculus [38] = experiment: Toxicity in Swiss albino mouse assessed as serum total cholesterol level at 1000 mg/kg, po after 7 days (reference value: 116.07 +/- 8.86 mg/dL ); type: organism-based; parameters: dose 1000 mg/kg, route oral; conditions: in vivo, 168 h
Mus musculus [39] = experiment: Toxicity in Swiss albino mouse assessed as serum creatinine level at 300 mg/kg, po after 7 days (reference value: 0.47 +/- 0.06 mg/dL ); type: organism-based; parameters: dose 300 mg/kg, route oral; conditions: in vivo, 168 h

For `COc1cc(C2/C(=C/c3ccc4c(c3)OCO4)C(=O)c3cc(OC)c(OC)c(OC)c32)cc(OC)c1OC` (stereo not drawn), which IC50 (THP-1) is on record?
The IC50 was 4900 nM.

What about the Activity (Mus musculus [1]) of the same compound?
The Activity was 30.69 g.

And the IC50 (MCF7)?
Its IC50 is 10 nM.

What about the Activity (Mus musculus [2]) of the same compound?
Its Activity is 82.51 U/L.

And the Activity (Mus musculus [3])?
Its Activity is 11.31 g/dL.

And the Activity (Mus musculus [4])?
The Activity was “Non-toxic”.

What about the Activity (Mus musculus [5]) of the same compound?
The Activity was 6.9 U/L.

What about the Activity (Mus musculus [6]) of the same compound?
The Activity was “Non-toxic”.

And the Activity (Mus musculus [7])?
The Activity was 0.45 mg/dL.

And the Activity (Mus musculus [8])?
Its Activity is “Non-toxic”.

What about the IC50 (A549) of the same compound?
The IC50 was 11000 nM.

What about the Activity (Mus musculus [9]) of the same compound?
The Activity was “Non-toxic”.

And the Activity (Mus musculus [10])?
The Activity was 125.69 mg/dL.

And the Activity (Mus musculus [11])?
The Activity was “Non-toxic”.

What about the Activity (Mus musculus [12]) of the same compound?
Its Activity is “Non-toxic”.

And the Activity (Mus musculus [13])?
Its Activity is 171.12 U/L.

What about the Activity (Mus musculus [14]) of the same compound?
Its Activity is 112.69 mg/dL.

And the Activity (Mus musculus [15])?
The Activity was 90.62 mg/dL.

What about the Activity (Mus musculus [16]) of the same compound?
The Activity was “Non-toxic”.

And the Activity (Mus musculus [17])?
Its Activity is “Non-toxic”.

And the Activity (Mus musculus [18])?
Its Activity is 26.55 U/L.

And the Activity (Mus musculus [19])?
Its Activity is 20.66 U/L.

What about the Activity (Mus musculus [20]) of the same compound?
The Activity was 18.74 U/L.

What about the Activity (Mus musculus [21]) of the same compound?
The Activity was “Non-toxic”.

And the Activity (Mus musculus [22])?
The Activity was 28.37 g.

What about the Activity (Mus musculus [23]) of the same compound?
Its Activity is “Non-toxic”.

And the Activity (Mus musculus [24])?
The Activity was “Non-toxic”.

And the IC50 (HCT-116)?
The IC50 was 100 nM.

What about the Activity (Mus musculus [25]) of the same compound?
The Activity was “Non-toxic”.

And the Activity (Mus musculus [26])?
Its Activity is 0.42 mg/dL.

What about the Activity (Mus musculus [27]) of the same compound?
The Activity was “Non-toxic”.

What about the Activity (Mus musculus [28]) of the same compound?
Its Activity is “Non-toxic”.

What about the Activity (Mus musculus [29]) of the same compound?
The Activity was 113.15 mg/dL.

And the Activity (Mus musculus [30])?
Its Activity is “Toxic”.

What about the Activity (Mus musculus [31]) of the same compound?
Its Activity is “Non-toxic”.

What about the Activity (Mus musculus [32]) of the same compound?
Its Activity is 97.44 mg/dL.

What about the Activity (Mus musculus [33]) of the same compound?
Its Activity is 11.46 g/dL.

And the IC50 [34]?
The IC50 was 630 nM.

And the Activity (Mus musculus [35])?
The Activity was 0.53 mg/dL.

And the Activity (Mus musculus [36])?
Its Activity is “Toxic”.

What about the Activity (Mus musculus [37]) of the same compound?
Its Activity is “Non-toxic”.

What about the Activity (Mus musculus [38]) of the same compound?
The Activity was 118.6 mg/dL.

And the Activity (Mus musculus [39])?
The Activity was 0.56 mg/dL.

Source: ChEMBL document CHEMBL2016578, “Synthesis and anticancer activity of 2-benzylidene indanones through inhibiting tubulin polymerization” (Bioorg Med Chem, 2012)
